Where two headings read alike, the source gives them in different places. Some results are limits rather than exact numbers.

For orientation: EC50 means the midpoint of the concentration-response curve.

Common to all, as to assay type: cell-based
Assay [1] concerns HIV-1LAI 4XAZT (D67N, K70R, T215Y, K219Q). Nature of the assay: p24 reduction assay in MT-2 cells, 4XAZT. The method, then: (§1) Cells. MT-2 cells (AIDS Research and Reference Reagent Program, National Institute of Allergy and Infectious Diseases, National Institutes of Health) were maintained in RPMI 1640 supplemented with 10% fetal bovine serum (FBS; JRH Biosciences, Lenexa, Kans.), 10 mM HEPES buffer, 50 IU/ml penicillin and 50 μg/ml streptomycin.
(§2) Antiviral Susceptibility Assays. The antiviral activity of each compound was determined by inoculating MT-2 cells with HIV-1LAI at a multiplicity of infection (MOI) of 0.01 TCID50/cell, followed by incubation in the presence of three-fold serial drug dilutions (3 wells per dilution) (see Mellors, et. al., Antimicrob. Agents Chemother. 39:1087-1092). Five or seven days after infection, culture supernatants were harvested, lysed with 0.5% triton-X 100 and assayed for p24 antigen concentration using a commercial ELISA assay (DuPont, NEN Products, Wilmington, Del.). The antiviral activity of the compounds is expressed as the IC50, which is the concentration required to inhibit 50% of p24 antigen production. The fold-resistance of a test virus is calculated by dividing the IC50 of the test virus by the IC50 of the HIV-1LAI control virus.
(§3) Generation of Mutant Recombinant HIV-1. HIV-1 containing the desired mutations were generated by oligonucleotide directed mutagenesis (Altered Sites II, Promega) as previously described (Mellors, et. al., Molecular Pharm. 41:446-451). After mutagenesis, mutant RT was subcloned into the pxxHIV-1LAI cloning vector using the silent XmaI and XbaI restriction sites located at the 5′ and 3′ ends of RT. Clones were DNA sequenced to verify the presence of the desired mutation(s) and electroporated into MT-2 cells as described above to generate infectious mutant recombinant HIV-1.
(§4) Mutant RT was generated via oligonucleotide-directed mutagenesis and ligated into the pXXHIV-1LAI cloning vector. Cloning was facilitated by the presence of two silent restriction sites at the 5′ and 3′ ends (Xma1 and Xba1, respectively) of pXXHIV-1LAI RT. Infectious mutant recombinant HIV-1 was generated by electroporating MT-2 cells with mutated pXXHIV-1LAI clones. The presence of the desired mutations was verified by DNA sequencing.
(§5) The multi-drug resistant HIV-1 strains, 11163p1 and 11588p1, are human clinical isolates having the RT mutations indicated. HIV-1 strains treated with the lipid analogs of the present invention include wild type, e.g., xxLAI, and the like, single mutation, e.g., xxLAI MI 84V (resistant to 3TC), xxLAI L74V (resistant to ddI and ddC), xxLAI K65R (resistant to ddI, ddC, DAPD, DXG, tenofovir, and adefovir), xxLAI T215Y (resistant to AZT), and the like, double mutations, e.g., xxLAI M41 L/T215Y (resistant to AZT), xxLAI MI 84V/T215Y (resistant to 3TC and AZT), and the like, and multiple mutations, e.g., xxLAI 4XAZT ((D67N, K70R, T215Y, K219Q) resistant to AZT)), xxLAI 4XAZT/M184V ((D67N, K70R, M 184V, T215Y, K219Q) resistant to AZT and 3TC), xxLAI M5456-12 (AZT+NNRTI resistant: D67N, K70R, K103N, T215Y), xxLAI G2-3g (AZT/3TC co-resistant: M41L, D67N, M184V, H208Y, L210W, R211K, L214F, T215Y, 1293V, E297A), 11163 (multinucleoside resistant virsus: M41L, A62V, V751, F77L, K103N, F116Y, Q151M, Y181C, M184V), 11588 (multinucleoside resistant virsus: A62V, K65R, K70R, V751, F77L, F116Y, Q151M, M184V, K219Q), and the like.

The test system of a further assay is MT-2 cells. Nature of the assay: In vitro selectivity index in MT-2 cells. The settings on record: (50% cytotoxic dose/50% effective dose)×100. On the procedure: The in vitro selectivity indexes for PFA and lipid analogs of PFA were determined in MT-2 cells and are as follows:
Note that the selectivity index ((50% cytotoxic dose/50% effective dose)×100) is much greater for the lipid analogs of PFA than for PFA itself. Since the lipid analogs have a much greater oral absorption than PFA, they may be given orally for controlling replication of drug-resistant HIV either alone or in combination with one or more antiviral agents. AZT is especially preferred in combination with the lipid analogs of PFA.

Another assay concerns HIV-1LAI 4XAZT/W88S. In words: p24 reduction assay in MT-2 cells, 4XAZT/W88S. As to conditions: Table 7; for EC50: 4XAZT/W88S; for Fold-resistance: 4XAZT/W88S relative to wild type virus. The method, then: as §1, §2, §3, §4
(§6) Invention compounds were also evaluated against a panel of HIV-1LAI derived recombinants resistant to PFA and the PFA invention compounds, as shown in Table 7.

Assay [2] has as its system multidrug-resistant HIV-1 clinical isolate 11163p1. In words: p24 reduction assay in MT-2 cells, 11163p1. On the procedure: as §1
as §2, with “[…],” for “was determined by inoculating MT-2 cells with HIV-1LAI at a multiplicity of infection (MOI) of 0.01 TCID50/cell,”
The multi-drug resistant HIV-1 strains, 11163p1 and 11588p1, are human clinical isolates having the RT mutations indicated. […]

Another assay concerns HIV-1LAI M184V. In words: p24 reduction assay in MT-2 cells, M184V. The settings on record: for EC50: M184V; for Fold-resistance: M184V relative to wild type virus. On the procedure:
as §1, §2, §3, §4, §5

Another assay deals with HIV-1LAI Q161L. Nature of the assay: p24 reduction assay in MT-2 cells, Q161L. As to conditions: Table 7; for EC50: Q161L; for Fold-resistance: Q161L relative to wild type virus. The method, then: as §1, §2, §3, §4, §6
The test system of assay [3] is multidrug-resistant HIV-1 clinical isolate 11588p1. Nature of the assay: p24 reduction assay in MT-2 cells, 11588p1. The method, then: as §1
as §2, with “[…],” for “was determined by inoculating MT-2 cells with HIV-1LAI at a multiplicity of infection (MOI) of 0.01 TCID50/cell,”
as §5

The subject of a further assay is HIV-1LAI L74V. Nature of the assay: p24 reduction assay in MT-2 cells, L74V. The settings on record: for EC50: L74V; for Fold-resistance: L74V relative to wild type virus. On the procedure:
as §1, §2, §3, §4, §5

Where [4] appears, read: Table 5, 4XAZT relative to wild type virus.
Where [5] appears, read: Table 7, 4XAZT relative to wild type virus.
[6] abbreviates: Human immunodeficiency virus 1, MT2.
Setting [7] is: Human immunodeficiency virus 1, MT2, Table 2, MOI 0.05.
The mark [8] stands for this setting: Human immunodeficiency virus 1, MT2, Table 1, MOI 0.01.
Setting [9] is: Human immunodeficiency virus 1, MT2, Table 3, mean ± SD.
The mark [10] stands for this setting: Table 1, 4xAZT, MOI 0.01, read-out: EC50.
Setting [11] is: Table 5, 4XAZT, mean ± SD, read-out: EC50.

In the case of `O=C(O)P(=O)(O)O` [PFA, phosphonoformate, reference compound], the EC50 is 8820 nM in assay [1] (Human immunodeficiency virus 1, MT2, Table 1, 4xAZT, MOI 0.01, read-out: EC50); 12700 ± 8070 nM in assay [1] (Human immunodeficiency virus 1, MT2, Table 5, 4XAZT, mean ± SD, read-out: EC50); 12700 nM in assay [1] (Human immunodeficiency virus 1, MT2, Table 7, 4XAZT, read-out: EC50); 18400 nM with HIV-1LAI 4XAZT/W88S (setting [6]); 24400 nM in assay [2] (setting [7]); 15700 nM in the assay on HIV-1LAI M184V (setting [8]). Also, the EC50 came to 33400 ± 18700 nM with HIV-1LAI M184V (setting [9]); 115000 nM with HIV-1LAI Q161L (setting [6]); 23500 nM in assay [3] (setting [7]); 37400 nM with HIV-1LAI L74V (setting [8]); 32700 ± 9000 nM with HIV-1LAI L74V (setting [9]). Besides, the Fold-resistance entry in assay [1] (setting [4]) is reported as “(0.7)”; in assay [1] (setting [5]) it was 8.07 (0.7); with HIV-1LAI 4XAZT/W88S, 10.40 (1.0); in the assay with HIV-1LAI M184V (Table 3), “(1.7)”; in the assay with HIV-1LAI Q161L, 14.14 (8.8); with HIV-1LAI L74V (Table 3) it was “(1.9)”. For the same compound, the “Selectivity Index” value with MT-2 cells is 137.

As to `Cc1cn([C@H]2C[C@H](N=[N+]=[N-])[C@@H](CO)O2)c(=O)[nH]c1=O` [AZT, 3′-Azido-3′-deoxythymidine], the EC50 in assay [1] (Human immunodeficiency virus 1, MT2, Table 8, 4XAZT, read-out: AZT EC50) is 290 ± 114 nM. Also, the Fold resistance in assay [1] (Table 8, 4XAZT relative to wild type virus) is reported as 7.3.

Consider `CCCCCCCCCCCCCCCCCCOC[C@H](COP(=O)(O)C(=O)O)OC` [MB-PFA, 1-O-octadecyl-2-O-methyl-sn-glycero-3-PFA], for which the EC50 in assay [1] (setting [10]) is 460 nM; in assay [1] (setting [11]) it was 580 ± 220 nM; in assay [1] (Table 7, 4XAZT, read-out: EC50), 580 nM; in the assay on HIV-1LAI 4XAZT/W88S, 1540 nM; in the assay with HIV-1LAI M184V (Table 1, MOI 0.01), 480 nM; with HIV-1LAI M184V (Table 3, mean ± SD), 1510 ± 450 nM. For the same compound, the EC50 amounted to 8780 nM in the assay on HIV-1LAI Q161L; 1160 nM in assay [3] (Table 2, MOI 0.05); 520 nM in the assay with HIV-1LAI L74V (Table 1, MOI 0.01); 880 ± 630 nM with HIV-1LAI L74V (Table 3, mean ± SD). The Fold-resistance entry in assay [1] (setting [4]) is on record as “(1.2)”; in assay [1] (setting [5]) it was 0.22 (1.2); with HIV-1LAI 4XAZT/W88S, 0.81 (1.8); with HIV-1LAI M184V (Table 3) it was “(1.7)”; with HIV-1LAI Q161L, 1.58 (11.4); with HIV-1LAI L74V (Table 3) it was “(1.8)”. The “Selectivity Index” value with MT-2 cells is reported as 953.

For `CCCCCCCCCCCCCCCCCCOC[C@@H](O)COP(=O)(O)C(=O)O` [B-PFA, 1-O-octadecyl-sn-glycero-3-PFA], the EC50 in assay [1] (setting [10]) is 1250 nM; in assay [1] (setting [11]), 1470 ± 630 nM; in assay [1] (Table 7, 4XAZT, read-out: EC50), 1470 nM; in the assay with HIV-1LAI 4XAZT/W88S, 4090 nM; in assay [2] (Table 2, MOI 0.05), 3480 nM; in the assay with HIV-1LAI M184V (Table 1, MOI 0.01), 2290 nM. The EC50 in the assay with HIV-1LAI M184V (Table 3, mean ± SD) is 1930 ± 540 nM; in the assay on HIV-1LAI Q161L it was greater than 30000 nM; in assay [3] (Table 2, MOI 0.05) it was 9310 nM; in the assay on HIV-1LAI L74V (Table 1, MOI 0.01) it was 4250 nM; with HIV-1LAI L74V (Table 3, mean ± SD), 4450 ± 2260 nM. Moreover, the Fold-resistance entry is “(0.8)” in assay [1] (setting [4]); 0.63 (0.8) in assay [1] (setting [5]); 1.84 (1.6) with HIV-1LAI 4XAZT/W88S; “(0.7)” in the assay with HIV-1LAI M184V (Table 3); “(>17.2)” with HIV-1LAI Q161L; “(2.5)” in the assay on HIV-1LAI L74V (Table 3). In addition, the “Selectivity Index” value in the assay on MT-2 cells is listed as 781.

Consider `CCCCCCCCCCCCCCCCCCOC[C@H](COP(=O)(O)C(=O)O)OCC` [EB-PFA, 1-O-octadecyl-2-O-ethyl-sn-glycero-3-PFA], for which the EC50 was determined as 330 nM in assay [1] (setting [10]); 340 ± 240 nM in assay [1] (setting [11]); 340 nM in assay [1] (Table 7, 4XAZT, read-out: EC50); 1510 nM in the assay on HIV-1LAI 4XAZT/W88S; 1230 nM in assay [2] (Table 2, MOI 0.05); 580 nM in the assay on HIV-1LAI M184V (Table 1, MOI 0.01). The EC50 came out at 1360 ± 930 nM with HIV-1LAI M184V (Table 3, mean ± SD); 6730 nM with HIV-1LAI Q161L; 730 nM in assay [3] (Table 2, MOI 0.05); 1340 nM in the assay on HIV-1LAI L74V (Table 1, MOI 0.01); 1210 ± 850 nM in the assay on HIV-1LAI L74V (Table 3, mean ± SD). Further, the Fold-resistance entry is “(0.5)” in assay [1] (setting [4]); 0.24 (0.5) in assay [1] (setting [5]); 0.21 (1.9) in the assay on HIV-1LAI 4XAZT/W88S; “(0.7)” in the assay with HIV-1LAI M184V (Table 3); 0.04 (7.5) in the assay with HIV-1LAI Q161L; “(1.9)” with HIV-1LAI L74V (Table 3). Moreover, the “Selectivity Index” value in the assay on MT-2 cells is given as 1905.

The values above are taken from patent publication US20030207843A1, “Treatment of drug-resistant human immunodeficiency virus infection” (priority 1999, published 2003).
